According to US8809057B2, “Methods of evaluating gene expression levels” (Raytheon BBN Technologies Corp., priority 2012, dated 2014):

B1: LacI: test regulatory protein (Lac repressor) binding Hef1a-LacO1Oid (protein, UniProt P03023 1-360, looked up)
Lactose operon repressor: MKPVTLYDVAEYAGVSYQTVSRVVNQASHVSAKTREKVEAAMAELNYIPNRVAQQLAGKQSLLIGVATSSLALHAPSQIVAAIKSRADQLGASVVVSMVERSGVEACKAAVHNLLAQRVSGLIINYPLDDQDAIAVEAACTNVPALFLDVSDQTPINSIIFSHEDGTRLGVEHLVALGHQQIALLAGPLSSVSARLRLAGWHKYLTRNQIQPIAEREGDWSAMSGFQQTMQMLNEGIVPTAMLVANDQMALGAMRAITESGLRVGADISVVGYDDTEDSSCYIPPLTTIKQDFRLLGQTSVDRLLQLSQGQAVKGNQLLPVSLVKRKTTLAPNTQTASPRALADSLMQLARQVSRLESGQ

Columns and labels:
Type in all cases: cell-based
[1] = tested on: Tre genetic element (rtTA); experiment: Example 2 multiplex circuit: small molecule effector (dox) transfer curve, input reporter EYFP; conditions: Example 2, FIG. 10, normalized input reporter EYFP
Excerpt: The multiplex circuit to be characterized is shown in FIG. 9. he regulatory protein transcription unit and the input reporter protein transcription unit, which are co-expressed in this example, are under the control of the small molecule effector doxycycline (dox), which binds to the constitutively expressed protein rtTA to regulate transcription from the Tre genetic element. In this example, the effector transcription unit comprises a constitutive effector genetic element (CAG) and a coding sequence for an effector-regulated protein (rtTA), wherein the constitutive effector genetic element (CAG) controls expression of the effector-controlled protein (rtTA). In this example, the effector transcription unit further comprises coding sequence for the VP16-GAL4 activator which binds UAS-T1 in the output transcription unit. In the absence of dox, Tal1 is not expressed and the constitutively expressed VP16-GAL4 activator binds to UAS-T1, leading to expression of the mKate output reporter. The effector transcription unit contains a coding sequence for a 2A self-cleaving peptide allowing for expression of rtTA and VP16-GAL4 from the same construct. The test regulatory protein transcription unit and the input transcription unit are co-expressed from a genetic element responsive to a small molecule effector (Tre). […] The input reporter protein EYFP has a yellow fluorescence emission. […]

[2] = tested on: Tre genetic element (rtTA); experiment: Example 1 multiplex circuit: small molecule effector (dox) transfer curve, input reporter EBFP2 by FACS; conditions: Example 1, FIG. 7, normalized input reporter EBFP2, HEK 293 FT
Excerpt: Both the regulatory protein transcription unit and the input reporter protein transcription unit are under the control of the small molecule effector doxycycline (dox). In this example, the activity of the small molecule effector (dox) is mediated through an effector transcription unit. The effector transcription unit comprises a constitutive effector genetic element (pHef1a) and a coding sequence for an effector-regulated protein (rtTA), wherein the constitutive effector genetic element (pHef1a) controls expression of the effector-controlled protein (rtTA). […]
The input transcription unit comprises a genetic element responsive to a small molecule effector (Tre) and a coding sequence for the input reporter protein (EBFP2), wherein the genetic element responsive to the effector-regulated protein (Tre) controls expression of the input reporter protein (EBPF2). […] The input reporter protein EBFP2 has a blue fluorescence emission. […]
(§1) The cells are then subjected to FACS analysis and the amounts of input, output and constitutive protein fluorescence is measured for each cell. […]
(§2) While the colors for the input, output and constitutive protein fluorescence are selected to have as little overlap as possible, there is some inherent overlap between the different colors. […]

Hef1a-LacO1Oid = experiment: Example 1 multiplex circuit: regulatory protein (LacI) transfer curve, output reporter EYFP by FACS; conditions: Example 1, FIG. 8, normalized output reporter EYFP
Excerpt: The regulatory protein transcription unit comprises a genetic element responsive to a small molecule effector (Tre) and a coding sequence for the regulatory protein (LacI), wherein the genetic element responsive to the genetic element responsive to the effector-regulated protein (Tre) controls expression of the regulatory protein (LacI). In the present case, the genetic element responsive to the effector-regulated protein (Tre) is responsive to the effector-controlled protein (rtTA).
The output transcription unit comprising a genetic element responsive to the regulatory protein (Hef1a-LacO1Oid) and a coding sequence for the output reporter protein (EYFP), wherein the genetic element responsive to the regulatory protein (Hef1a-LacO1Oid) controls expression of the output reporter protein (EYFP). The output reporter protein EYFP has a yellow fluorescence emission. […]
as §1, §2

Row | Molecule | dox level at which the level of IFP saturates at a high value [1] | dox level at which the level of IFP stays low regardless of the plasmid count [1] | dox level at which the level of IFP saturates at a high value [2] | dox level at which the level of IFP stays low regardless of the plasmid count [2] | repression of the output of Hef1a-LacO1Oid (Hef1a-LacO1Oid)
1 | C[C@H]1c2cccc(O)c2C(=O)C2=C(O)[C@]3(O)C(=O)C(C(N)=O)=C(O)[C@@H](N(C)C)[C@@H]3[C@@H](O)[C@@H]21 [dox, doxycycline] | more than 200 nM | less than or equal to 3 nM | more than 200 nM | less than or equal to 3 nM | –
2 | B1 | – | – | – | – | 100 fold
